How the values were obtained:
[1] = molecular target: T1, SSTR4 (Homo sapiens, UniProt P31391); experiment: SSTR4 I-125 somatostatin competition binding assay (CHO-K1 membranes); parameters: host or cells: CHO-K1; conditions: competition with I-125 labeled somatostatin, membranes from CHO-K1 overexpressing SSTR4; read-out: SSTR4 Binding pIC50 (converted)
Description: SSTR4I-125 Somatostatin Competition Binding Assay
Membranes from CHO-K1 cells overexpressing SSTR4 are purchased from Perkin Elmer (catalog number ES-524-M400UA). […] The scintillator sheets are melted to filters using a heat block.

[2] = molecular target: SSTR1 (Homo sapiens, UniProt P30872); experiment: biochemical;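 also: competitive binding to membranes of CHO-K1 cells overexpressing SSTR1, incubated 60 min at room temperature, radioactivity read by scintillation counting after filtration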
Chain of SSTR1 (P30872 whole entry): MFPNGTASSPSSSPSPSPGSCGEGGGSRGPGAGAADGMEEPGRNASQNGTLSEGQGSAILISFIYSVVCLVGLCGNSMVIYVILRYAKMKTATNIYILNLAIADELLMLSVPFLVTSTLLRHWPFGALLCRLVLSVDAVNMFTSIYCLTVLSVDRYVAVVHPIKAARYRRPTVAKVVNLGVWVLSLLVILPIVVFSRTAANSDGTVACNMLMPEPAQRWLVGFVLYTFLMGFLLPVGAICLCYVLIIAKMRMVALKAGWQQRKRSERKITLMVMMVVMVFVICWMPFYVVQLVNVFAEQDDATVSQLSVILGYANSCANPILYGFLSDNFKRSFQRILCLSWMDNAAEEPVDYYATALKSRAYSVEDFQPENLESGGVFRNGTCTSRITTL
Description: SSTR1 I-125 Somatostatin Competition Binding Assay for Selectivity Versus SSTR1
Membranes from CHO-K1 cells overexpressing SSTR1 are purchased from Perkin Elmer (catalog number ES-520-M400UA). Test compounds are suspended in DMSO and then diluted in assay buffer (25 mM HEPES pH 7.4, 10 mM MgCl2, 1 mM CaCl2, 0.5% BSA) plus 0.4 nM I-125 labeled somatostatin (Perkin Elmer catalog number NEX389). […] Then 10 μg of SSTR1 membranes in 50 μL assay buffer are added per well. The plate is incubated for 60 minutes at room temperature. […] The contents of the assay plate are transferred to filters with a TomTech harvester and washed 5 times with 20 mM HEPES, 100 mM NaCl. […] The scintillator sheets are melted to the filters using a heat block. The filters are then read in a MicroBeta scintillation counter. Binding Ki curves are generated using Activity Base for Screening Data Management and the results are reported as pIC50.

[3] = molecular target: T1, SSTR4; experiment: cell-based
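For EC50 in this document: CHO-K1 cells overexpressing SSTR4, reduction of forskolin-driven cAMP after 30 min compound exposure at room temperature, cAMP read by HTRF LANCE Ultra kit.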

T1 sequence (P31391 whole entry): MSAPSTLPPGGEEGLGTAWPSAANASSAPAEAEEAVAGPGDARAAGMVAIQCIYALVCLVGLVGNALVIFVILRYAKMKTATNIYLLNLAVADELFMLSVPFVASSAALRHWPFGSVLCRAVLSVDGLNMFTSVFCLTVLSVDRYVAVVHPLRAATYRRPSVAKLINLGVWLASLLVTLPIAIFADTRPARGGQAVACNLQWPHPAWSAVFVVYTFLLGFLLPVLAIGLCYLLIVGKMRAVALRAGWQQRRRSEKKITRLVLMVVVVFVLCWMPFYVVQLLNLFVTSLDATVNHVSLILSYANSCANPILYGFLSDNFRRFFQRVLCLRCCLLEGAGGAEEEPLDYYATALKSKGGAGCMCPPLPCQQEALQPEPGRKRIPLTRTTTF

Compound	IC50 [1] [nM]	IC50 [2] [nM]	EC50 [3] [nM]
CNC(=O)c1cnc(NCCN2CCCC2)c(C(C)c2ccc(F)cc2)n1 (stereo not drawn) [Example 22, 6-(1-(4-fluorophenyl)ethyl)-N-methyl-5-((2-(pyrrolidin-1-yl)ethyl)amino)pyrazine-2-carboxamide]	77.6	10500	3.72
CC(c1ccc(F)cc1)c1ncc(C(=O)N(C)C)nc1NCCN1CCCC1 (stereo not drawn) [Example 28]	389	1660	4.68
CC(c1ccc(F)cc1)c1ncc(C(N)=O)nc1NCCN1CCCC1 (stereo not drawn) [Example 37, 5-(1-(4-fluorophenyl)ethyl)-6-((2-(pyrrolidin-1-yl)ethyl)amino)pyrazine-2-carboxamide]	490	4570	61.7
Cc1cccc(Cc2nc(C(=O)N(C)C)c(C)nc2NCCN2CCCC2)c1 [Example 39, N,N,3-trimethyl-6-(3-methylbenzyl)-5-((2-(pyrrolidin-1-yl)ethyl)amino)pyrazine-2-carboxamide]	41.7	26900	4.27
CNC(=O)c1nc(Cc2cccc(C)c2)c(NCCN2CCCC2)nc1C [Example 40, N,3-dimethyl-6-(3-methylbenzyl)-5-((2-(pyrrolidin-1-yl)ethyl)amino)pyrazine-2-carboxamide]	21.9	8910	1.17
Cc1cccc(Cc2nc(C(N)=O)c(C)nc2NCCN2CCCC2)c1 [Example 41, 3-methyl-6-(3-methylbenzyl)-5-((2-(pyrrolidin-1-yl)ethyl)amino)pyrazine-2-carboxamide]	23.4	13200	2.09
Cc1nc(NCCN2CCCC2)c(Cc2ccc(F)cc2)nc1C(=O)N(C)C [Example 42, 6-(4-fluorobenzyl)-N,N,3-trimethyl-5-((2-(pyrrolidin-1-yl)ethyl)amino)pyrazine-2-carboxamide]	138	10000	12.6
CNC(=O)c1nc(Cc2ccc(F)cc2)c(NCCN2CCCC2)nc1C [Example 43, 6-(4-fluorobenzyl)-N,3-dimethyl-5-((2-(pyrrolidin-1-yl)ethyl)amino)pyrazine-2-carboxamide]	39.8	9770	12.6
CNC(=O)c1nc(Cc2ccc(F)cc2)c(NCCN2CCCC2)nc1C [Example 44, 6-(4-fluorobenzyl)-N,3-dimethyl-5-((2-(pyrrolidin-1-yl)ethyl)amino)pyrazine-2-carboxamide]	67.6	11700	4.79
Cc1nc(NCCN2CCCC2)c(C(C)c2ccc(F)cc2)nc1C(=O)N(C)C (stereo not drawn) [Example 48, 6-(1-(4-fluorophenyl)ethyl)-N,N,3-trimethyl-5-((2-(pyrrolidin-1-yl)ethyl)amino)pyrazine-2-carboxamide]	11.7	9550	0.776
CNC(=O)c1nc(C(C)c2ccc(F)cc2)c(NCCN2CCCC2)nc1C (stereo not drawn) [Example 49, 6-(1-(4-fluorophenyl)ethyl)-N,3-dimethyl-5-((2-(pyrrolidin-1-yl)ethyl)amino)pyrazine-2-carboxamide]	16.6	2570	0.977
Cc1nc(NCCN2CCCC2)c(C(C)c2ccc(F)cc2)nc1C(=O)NCCF (stereo not drawn) [Example 51, N-(2-fluoroethyl)-6-(1-(4-fluorophenyl)ethyl)-3-methyl-5-((2-(pyrrolidin-1-yl)ethyl)amino)pyrazine-2-carboxamide]	18.2	81.3	3.09
COCCNC(=O)c1nc(C(C)c2ccc(F)cc2)c(NCCN2CCCC2)nc1C (stereo not drawn) [Example 52, 6-(1-(4-fluorophenyl)ethyl)-N-(2-methoxyethyl)-3-methyl-5-((2-(pyrrolidin-1-yl)ethyl)amino)pyrazine-2-carboxamide]	16.2	1620	1.86
Cc1nc(NCCN2CCCC2)c(C(C)c2ccc(F)cc2)nc1C(=O)N1CCC(F)(F)C1 (stereo not drawn) [Example 60, (3,3-difluoropyrrolidin-1-yl)(6-(1-(4-fluorophenyl)ethyl)-3-methyl-5-((2-(pyrrolidin-1-yl)ethyl)amino)pyrazin-2-yl)methanone]	40.7	1580	4.9
Cc1nc(NCCN2CCCC2)c(C(C)c2ccc(F)cc2)nc1C(=O)N[C@@H]1CCOC1 (stereo partly drawn) [Example 61, 6-(1-(4-fluorophenyl)ethyl)-3-methyl-5-((2-(pyrrolidin-1-yl)ethyl)amino)-N-((R)-tetrahydrofuran-3-yl)pyrazine-2-carboxamide]	20.4	1510	15.8
Cc1nc(NCCN2CCCC2)c(C(C)c2ccc(F)cc2)nc1C(=O)NC1CC1 (stereo not drawn) [Example 62, N-cyclopropyl-6-(1-(4-fluorophenyl)ethyl)-3-methyl-5-((2-(pyrrolidin-1-yl)ethyl)amino)pyrazine-2-carboxamide]	14.5	1410	4.27
CCN(C)C(=O)c1nc(C(C)c2ccc(F)cc2)c(NCCN2CCCC2)nc1C (stereo not drawn) [Example 63, N-ethyl-6-(1-(4-fluorophenyl)ethyl)-N,3-dimethyl-5-((2-(pyrrolidin-1-yl)ethyl)amino)pyrazine-2-carboxamide]	18.2	5370	1.35
Cc1nc(NCCN2CCCC2)c(C(C)c2ccc(F)cc2)nc1C(=O)N[C@H]1C[C@@H](F)C1 (stereo partly drawn) [Example 64, N-(cis-3-fluorocyclobutyl)-6-(1-(4-fluorophenyl)ethyl)-3-methyl-5-((2-(pyrrolidin-1-yl)ethyl)amino)pyrazine-2-carboxamide]	33.9	1260	13.8
Cc1nc(NCCN2CCCC2)c(C(C)c2ccc(F)cc2)nc1C(=O)N(C)C1CC1 (stereo not drawn) [Example 65, N-cyclopropyl-6-(1-(4-fluorophenyl)ethyl)-N,3-dimethyl-5-((2-(pyrrolidin-1-yl)ethyl)amino)pyrazine-2-carboxamide]	17	3390	1.62
Cc1nc(NCCN2CCCC2)c(C(C)c2ccc(F)cc2)nc1C(=O)N1CC[C@H](F)C1 (stereo partly drawn) [Example 66, (6-(1-(4-fluorophenyl)ethyl)-3-methyl-5-((2-(pyrrolidin-1-yl)ethyl)amino)pyrazin-2-yl)((S)-3-fluoropyrrolidin-1-yl)methanone]	36.3	3470	4.17
Cc1nc(NCCN2CCCC2)c(C(C)c2ccc(F)cc2)nc1C(=O)N(C)C(C)C (stereo not drawn) [Example 67, 6-(1-(4-fluorophenyl)ethyl)-N-isopropyl-N,3-dimethyl-5-((2-(pyrrolidin-1-yl)ethyl)amino)pyrazine-2-carboxamide]	10	3630	1.7
CO[C@H]1CCN(C(=O)c2nc(C(C)c3ccc(F)cc3)c(NCCN3CCCC3)nc2C)C1 (stereo partly drawn) [Example 68, (6-(1-(4-fluorophenyl)ethyl)-3-methyl-5-((2-(pyrrolidin-1-yl)ethyl)amino)pyrazin-2-yl)((S)-3-methoxypyrrolidin-1-yl)methanone]	31.6	3550	0.676
Cc1nc(NCCN2CCCC2)c(C(C)c2ccc(F)cc2)nc1C(=O)N[C@H]1CCOC1 (stereo partly drawn) [Example 69, 6-(1-(4-fluorophenyl)ethyl)-3-methyl-5-((2-(pyrrolidin-1-yl)ethyl)amino)-N-((S)-tetrahydrofuran-3-yl)pyrazine-2-carboxamide]	135	2400	8.71
CO[C@H]1C[C@H](NC(=O)c2nc(C(C)c3ccc(F)cc3)c(NCCN3CCCC3)nc2C)C1 (stereo partly drawn) [Example 71, 6-(1-(4-fluorophenyl)ethyl)-N-(trans-3-methoxycyclobutyl)-3-methyl-5-((2-(pyrrolidin-1-yl)ethyl)amino)pyrazine-2-carboxamide]	31.6	2450	4.27
CO[C@@H]1CCN(C(=O)c2nc(C(C)c3ccc(F)cc3)c(NCCN3CCCC3)nc2C)C1 (stereo partly drawn) [Example 72, (6-(1-(4-fluorophenyl)ethyl)-3-methyl-5-((2-(pyrrolidin-1-yl)ethyl)amino)pyrazin-2-yl)((R)-3-methoxypyrrolidin-1-yl)methanone]	64.6	4790	3.39
Cc1nc(NCCN2CCCC2)c(C(C)c2ccc(F)cc2)nc1C(=O)NC1CC(F)(F)C1 (stereo not drawn) [Example 73, N-(3,3-difluorocyclobutyl)-6-(1-(4-fluorophenyl)ethyl)-3-methyl-5-((2-(pyrrolidin-1-yl)ethyl)amino)pyrazine-2-carboxamide]	47.9	1100	9.77
Cc1nc(NCCN2CCCC2)c(C(C)c2ccc(F)cc2)nc1C(=O)N1CC[C@@H](F)C1 (stereo partly drawn) [Example 74, (6-(1-(4-fluorophenyl)ethyl)-3-methyl-5-((2-(pyrrolidin-1-yl)ethyl)amino)pyrazin-2-yl)((R)-3-fluoropyrrolidin-1-yl)methanone]	63.1	4370	3.24
Cc1nc(Cc2ccc(F)cc2)c(NCCN2CCC2)nc1C [Example 78, N-(2-(azetidin-1-yl)ethyl)-3-(4-fluorobenzyl)-5,6-dimethylpyrazin-2-amine]	77.6	28200	12.6
Cc1cccc(Cc2ncc(C(C)C)nc2NCCN2CCC2)c1 [Example 87, N-(2-(azetidin-1-yl)ethyl)-6-isopropyl-3-(3-methylbenzyl)pyrazin-2-amine]	10.5	3720	5.01
Cc1nc(NCCN2CCC2)c(Cc2ccc(F)cc2)nc1C#N [Example 96, 5-((2-(azetidin-1-yl)ethyl)amino)-6-(4-fluorobenzyl)-3-methylpyrazine-2-carbonitrile]	61.7	11000	27.5

From patent US12428403B2, “N-(heterocyclyl and heterocyclylalkyl)-3-benzylpyridin-2-amine derivatives as SSTR4 agonists” (Takeda Pharmaceutical Company Limited, priority 2020, dated 2025)
